This is an account of results in patent US5240695A, “Use of 2-hydroxy-4-methoxybenzophenone-5-sulphonic acid or its salts for protecting the hair against environmental attacking agents, and especially against light and process for protecting the hair using the compound” (L'Oreal, priority 1988, dated 1993).

Experiment [1] can be described thus: Suntest exposure (xenon emitter) of permanent-waved natural hair, 15% extension level in the wet state. To be noted: Example 2 styling foam (0.5 g UVINUL MS 40 in 100 g composition before aerosol packaging), no rinse, 180 hours Suntest, vs foam without UVINUL MS 40. The protocol:
Permanent-waved natural hair receives an application of this foam and then, without this being followed by a rinse, is subjected to 180 hours' exposure to the Suntest, as described in Example 1.

The nature of experiment [2]: Suntest exposure (xenon emitter) of bleached hair, 15% extension level in the wet state. To be noted: 120 hours Suntest; for mean value of the 15% extension level in the wet state: no rinse.

Molecules are shown by their SMILES.

With `COc1cc(O)c(C(=O)c2ccccc2)cc1S(=O)(=O)O` [UVINUL MS 40, 2-hydroxy-4-methoxybenzophenone-5-sulphonic acid], the “mean value of the 15% extension level in the wet state” value in experiment [1] is listed as “significant improvement”; in experiment [2] (Example 3 styling gel (0.3 g/100 g UVINUL MS 40), three applications, vs gel without UVINUL MS 40), “significant improvement”; in experiment [2] (Example 4 styling spray (1 g/100 g UVINUL MS 40), one application, vs spray without UVINUL MS 40), “improved very appreciably”. The “mean values of the 15% extension level in the wet state” value in experiment [2] (Example 1 shampoo (1 g/100 g UVINUL MS 40), washed five times, vs shampoo base without UVINUL MS 40) is recorded as “substantial improvement”.
